Patent publication US7994200B2, “Cycloalkane-substituted pyrazoline derivatives, their preparation and use as medicaments” (Laboratorios del Dr. Esteve, S.A., priority 2005, dated 2011)
Like-named read-outs stand apart in the source and are kept apart here.

What was measured:
[1] = biological target: recombinant human cannabinoid 1 receptor (CB1) (Homo sapiens, UniProt P21554); assay: [35S]GTPγS binding antagonistic assay against WIN 55,212-2, CHO cell membranes; format: biochemical; conditions: compound at 1 μM against WIN 55,212-2; 100% = effect of internal standard CB1-antagonist
Sequence of recombinant human cannabinoid 1 receptor (CB1) (P21554 whole entry): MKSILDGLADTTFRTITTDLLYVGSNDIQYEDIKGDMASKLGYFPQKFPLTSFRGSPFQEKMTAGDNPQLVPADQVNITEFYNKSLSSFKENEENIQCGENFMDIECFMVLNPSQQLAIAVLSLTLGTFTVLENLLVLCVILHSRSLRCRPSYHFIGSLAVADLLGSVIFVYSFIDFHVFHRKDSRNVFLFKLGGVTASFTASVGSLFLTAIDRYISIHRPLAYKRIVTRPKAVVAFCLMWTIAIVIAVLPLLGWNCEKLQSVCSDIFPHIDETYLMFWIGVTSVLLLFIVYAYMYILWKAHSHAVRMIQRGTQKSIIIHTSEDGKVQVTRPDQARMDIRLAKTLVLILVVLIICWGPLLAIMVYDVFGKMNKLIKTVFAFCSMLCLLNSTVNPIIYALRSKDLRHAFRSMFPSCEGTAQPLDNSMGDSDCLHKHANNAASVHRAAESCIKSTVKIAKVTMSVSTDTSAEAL
Method: The percentage of catalepsy is determined according of the following formula: % Catalepsy=arithmetic mean/6×100 Antagonistic Assay: Materials and Methods. Membrane Preparation:
Chinese hamster ovary (CHO) cells stably expressing recombinant human cannabinoid 1 receptor (CB1) were cultured in nutrient mixture Ham's F 12 supplemented with 10% heat-inactivated fetal bovine serum, 2 mM L-glutamine, 50 U/ml penicillin, 50 U/ml streptomycin and 0.5 mg/ml geneticin. In order to obtain cells, culture flasks were washed twice with phosphate buffered saline and scraped. Then, cells were collected by centrifugation (200×g, 10 min) and stored dry at −80° C. Cells were homogenized in ice-cold 20 mM HEPES, 10 mM EDTA (pH 7.5) and centrifuged at 40,000×g for 15 min at 4° C. The pellet was resuspended in 20 mM HEPES, 0.1 mM EDTA (pH 7.5) and centrifuged for 15 min at 4° C. The final pellet was resuspended in 20 mM HEPES, 0.1 mM EDTA (pH 7.5), and divided in aliquots and stored at −80° C. until use.
[^35S]GTPγS Binding Assay:
The reaction was performed in 96-well plates. […] The incubation was terminated by rapid filtration through Millipore Multiscreen glass fiber FB, and rinsed two-times with ice-cold assay buffer. Filter plates were dried and 30 μl of scintillation liquid was added. Radioactivity was determined using Wallac Microbeta Trilux. Each experiment was performed at least in duplicate.
The average of basal [^35S]GTPγS binding was subtracted from all binding data.

CB1-Receptor = biological target: T1, CB1-Receptor (Homo sapiens, UniProt P21554); assay: In-vitro determination of affinity to CB1/CB2-Receptors, radioligand [3H]-CP55940; format: binding
T1 construct: purchased Receptor Biology, Inc
T1 sequence (P21554 whole entry): as above
Method: Pharmacological Data: Pharmacological Methods I. In-vitro determination of affinity to CB1/CB2-Receptors
The in-vitro determination of the affinity of the inventive quaternary ammonium salts of substituted pyrazoline compounds to CB1/CB2-Receptors is carried out as described in the publication of Ruth A. Ross, Heather C. Brockie et al., “Agonist-inverse agonist characterization at CB1 and CB2 cannabinoid receptors of L-759633, L759656 and AM630”, British Journal of Pharmacology, 126, 665-672, (1999), whereby the transfected human CB1 and CB2 receptors of Receptor Biology, Inc. are used. The radioligand used for both receptors is [^3H]-CP55940. The respective parts of the description are hereby incorporated by reference and forms part of the present disclosure.
The affinity of the inventive substituted pyrazoline compounds to CB1/CB2 receptors was determined as described above.

[2] = In vivo testing for antiobesic activity, acute treatment; conditions: rats, acute oral administration
Method: III. In Vivo Testing for Antiobesic Activity a) Accute-Treatment
Normally handled rats were habituated to a reversed cycle 12/12 h, and the compound as well as saline was acutely orally administered. After administration the cumulated food intake (g) was measured at 6 h and 23 h. Following that the difference in body weight between control and compound treated animals was measured.

[3] = transfected human receptors, [3H]-CP55940, read-out: IC50

Antagonism (%) [1] [%]	IC50 (CB1-Receptor; [3]) [nM]	SMILES	IC50 (CB1-Receptor) [nM]	activity reducing body weight [2]
79 ± 18	31.9	C[C@H]1C(C(=O)NC2CCCCCC2)=NN(c2ccc(Cl)cc2Cl)[C@H]1c1ccc(Cl)cc1 (relative stereo) [Example 1, cis-5-(4-chlorophenyl)-N-cycloheptyl-1-(2,4-dichlorophenyl)-4-methyl-4,5-dihydro-1H-pyrazole-3-carboxamide]		
58.1	30	C[C@H]1C(C(=O)NC2CCCCCC2)=NN(c2ccc(Cl)cc2Cl)[C@H]1c1ccc(Br)cc1 (relative stereo) [Example 5, cis-5-(4-bromophenyl)-N-cycloheptyl-1-(2,4-dichlorophenyl)-4-methyl-4,5-dihydro-1H-pyrazole-3-carboxamide]		
83 ± 0	112	C[C@H]1C(C(=O)NC2CCCCCC2)=NN(c2ccc(Cl)cc2Cl)[C@H]1c1ccc(F)cc1 (relative stereo) [Example 7, cis-N-cycloheptyl-1-(2,4-dichlorophenyl)-5-(4-fluorophenyl)-4-methyl-4,5-dihydro-1H-pyrazole-3-carboxamide]		
		C[C@H]1C(C(=O)N[C@@H]2CCCC[C@H]2O)=NN(c2ccc(Cl)cc2Cl)[C@H]1c1ccc(Cl)cc1 [Example 15, (4R,5R)-5-(4-chlorophenyl)-1-(2,4-dichlorophenyl)-N-((1R,2R)-2-hydroxycyclohexyl)-4-methyl-4,5-dihydro-1H-pyrazole-3-carboxamide]		good activity
13		C[C@H]1C(C(=O)N[C@H]2CCCC[C@@H]2O)=NN(c2ccc(Cl)cc2Cl)[C@H]1c1ccc(Cl)cc1 [Example 17, (4R,5R)-5-(4-chlorophenyl)-1-(2,4-dichlorophenyl)-N-((1S,2S)-2-hydroxycyclohexyl)-4-methyl-4,5-dihydro-1H-pyrazole-3-carboxamide]		
93 ± 8	69	C[C@@H]1C(C(=O)N[C@H]2CCCC[C@@H]2O)=NN(c2ccc(Cl)cc2Cl)[C@@H]1c1ccc(Cl)cc1 [Example 18, (4S,5S)-5-(4-chlorophenyl)-1-(2,4-dichlorophenyl)-N-((1S,2S)-2-hydroxycyclohexyl)-4-methyl-4,5-dihydro-1H-pyrazole-3-carboxamide]		good activity
37		COc1ccc([C@H]2[C@@H](C)C(C(=O)N[C@H]3CCCC[C@@H]3O)=NN2c2ccc(Cl)cc2Cl)cc1 [Example 29, (4R,5R)-5-(4-methoxyphenyl)-1-(2,4-dichlorophenyl)-N-((1S,2S)-2-hydroxycyclohexyl)-4-methyl-4,5-dihydro-1H-pyrazole-3-carboxamide]		
85		COc1ccc([C@@H]2[C@H](C)C(C(=O)N[C@H]3CCCC[C@@H]3O)=NN2c2ccc(Cl)cc2Cl)cc1 [Example 30, (4S,5S)-5-(4-methoxyphenyl)-1-(2,4-dichlorophenyl)-N-((1S,2S)-2-hydroxycyclohexyl)-4-methyl-4,5-dihydro-1H-pyrazole-3-carboxamide]		

SMILES	Antagonism (%) [1] [%]	IC50 (CB1-Receptor; [3]) [nM]	IC50 (CB1-Receptor) [nM]	activity reducing body weight [2]
COc1ccc([C@H]2[C@@H](C)C(C(=O)NC3CCCCCC3)=NN2c2ccc(Cl)cc2Cl)cc1 (relative stereo) [Example 11, cis-N-cycloheptyl-1-(2,4-dichlorophenyl)-5-(4-methoxyphenyl)-4-methyl-4,5-dihydro-1H-pyrazole-3-carboxamide]	78 ± 8		66	
